Assay results: patent US20240124431A1, “2,3-DIHYDRO-4H-BENZO[B][1,4]OXAZIN-4-YL)(5-(PHENYL)-PYRIDIN-3-YL)METHANONE DERIVATIVES AND SIMILAR COMPOUNDS AS CYP11A1 INHIBITORS FOR THE TREATMENT OF PROSTATE CANCER” (ORION CORPORATION, priority 2020, published 2024)

Biological target: T1, CYP11A1 (Homo sapiens, UniProt P05108)
T1 construct: endogenous in cells; host or cells: NCI-H295R
T1 sequence (P05108 40-521): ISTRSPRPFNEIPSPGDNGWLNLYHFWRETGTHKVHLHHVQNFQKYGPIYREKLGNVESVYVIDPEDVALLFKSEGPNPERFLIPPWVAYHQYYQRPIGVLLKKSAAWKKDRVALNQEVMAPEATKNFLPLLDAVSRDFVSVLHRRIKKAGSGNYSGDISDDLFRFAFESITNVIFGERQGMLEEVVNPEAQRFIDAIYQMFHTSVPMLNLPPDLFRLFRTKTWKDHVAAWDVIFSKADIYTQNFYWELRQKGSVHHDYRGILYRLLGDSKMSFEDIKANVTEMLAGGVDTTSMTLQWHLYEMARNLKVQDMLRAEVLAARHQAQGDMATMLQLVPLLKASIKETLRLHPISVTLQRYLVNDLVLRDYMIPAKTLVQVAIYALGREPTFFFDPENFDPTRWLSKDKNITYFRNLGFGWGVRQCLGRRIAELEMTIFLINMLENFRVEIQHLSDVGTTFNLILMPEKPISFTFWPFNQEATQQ
Assay: CYP11A1 inhibition: pregnenolone biosynthesis measured by ELISA in NCI-H295R cells
Type: cell-based
Details: NCI-H295R cells treated for 24 hours, 10 concentrations in duplicates, read-out: IC50 on CYP11A1 inhibition (Group)
Method: The ability of the test compounds to inhibit pregnenolone biosynthesis was measured by enzyme-linked immunosorbent assay (ELISA) detecting pregnenolone (Abnova Pregnenolone ELISA Kit, KA1912). […] To determine the half maximal inhibitory concentration (IC50) of the test compounds on CYP11A1 inhibition, the cells were treated for 24 hours with increasing concentrations of the test compound. The final DMSO concentration was 0.4%. Medium samples were diluted 1:6 and pregnenolone amounts determined with ELISA. Manufacturer's recommended protocols were used and pregnenolone (Sigma-Aldrich, P9129) standards were prepared in cell culture medium. Absorbance (A450) was measured with Envision plate reader (PerkinElmer). All the test compounds were studied at 10 concentrations in duplicates.

Structure (SMILES)	IC50
O=C(c1cncc(-c2ccc3c(c2)OCC3)n1)N1CCOC2CCCCC21 (centres unmarked) [Compound 29, (6-(2,3-Dihydrobenzofuran-6-yl)pyrazin-2-yl)(octahydro-4H-benzo[b][1,4]-oxazin-4-yl)methanone]	< 50 nM
O=C(c1cncc(-c2ccc(F)nc2)c1)N1CCOc2ccccc21 [Compound 49, (2,3-Dihydro-4H-benzo[b][1,4]oxazin-4-yl)(6′-fluoro-[3,3′-bipyridin]-5-yl)-methanone]	51 to 200 nM
CN1CCN(C(=O)c2cncc(-c3ccc(F)cc3)c2)c2ccccc21 [Compound 31, (5-(4-Fluorophenyl)pyridin-3-yl)(4-methyl-3,4-dihydroquinoxalin-1(2H)-yl)-methanone]	< 50 nM
O=C(c1cncc(-c2ccc(F)c(O)c2)c1)N1CCOc2ccccc21 [Compound 27, (2,3-Dihydro-4H-benzo[b][1,4]oxazin-4-yl)(5-(4-fluoro-3-hydroxyphenyl)-pyridin-3-yl)methanone]	< 50 nM
O=C(c1cncc(-c2cccc(OC(F)(F)F)c2)c1)N1CCOc2ccccc21 [Compound 1, (2,3-Dihydro-4H-benzo[b][1,4]oxazin-4-yl)(5-(3-(trifluoromethoxy)phenyl)-pyridin-3-yl)methanone]	201 to 2500 nM
CC1CCc2ccccc2N1C(=O)c1cncc(-c2ccc(F)cc2)n1 (centres unmarked) [Compound 22, (6-(4-Fluorophenyl)pyrazin-2-yl)(2-methyl-3,4-dihydroquinolin-1(2H)-yl)-methanone]	< 50 nM
C=C(c1ccccc1)c1cncc(C(=O)N2CCCc3ccccc32)c1 [Compound 51, (3,4-Dihydroquinolin-1(2H)-yl)(5-(1-phenylvinyl)pyridin-3-yl)methanone]	51 to 200 nM
COc1ccc(-c2cncc(C(=O)N3CCOc4ccccc43)c2)cc1 [Compound 23, (2,3-Dihydro-4H-benzo[b][1,4]oxazin-4-yl)(5-(4-methoxyphenyl)pyridin-3-yl)-methanone]	< 50 nM
Cc1c(C(=O)N2CCOc3ccccc32)cncc1-c1ccccc1 [Compound 3, (2,3-Dihydro-4H-benzo[b][1,4]oxazin-4-yl)(4-methyl-5-phenylpyridin-3-yl)-methanone]	51 to 200 nM
O=C(c1cncc(-c2ccc([N+](=O)[O-])cc2)c1)N1CCOc2ccccc21 [Compound 32, (2,3-Dihydro-4H-benzo[b][1,4]oxazin-4-yl)(5-(4-nitrophenyl)pyridin-3-yl)-methanone]	< 50 nM
O=C(c1cncc(-c2ccc(C(F)(F)F)cc2)c1)N1CCOc2ccccc21 [Compound 44, (2,3-Dihydro-4H-benzo[b][1,4]oxazin-4-yl)(5-(4-(trifluoromethyl)phenyl)pyridin-3-yl)methanone]	51 to 200 nM
O=S(=O)(c1cncc(-c2ccc(F)cc2)c1)N1CCOc2ccccc21 [Compound 46, 4-((5-(4-Fluorophenyl)pyridin-3-yl)sulfonyl)-3,4-dihydro-2H-benzo[b][1,4]-oxazine]	51 to 200 nM
O=C(c1cc(-c2ccc(F)cc2)cnn1)N1CCOc2ccccc21 [Compound 7, (2,3-Dihydro-4H-benzo[b][1,4]oxazin-4-yl)(5-(4-fluorophenyl)pyridazin-3-yl)-methanone]	201 to 2500 nM
O=C(c1cnnc(-c2ccc(F)cc2)c1)N1CCCc2ccccc21 [Compound 30, (3,4-Dihydroquinolin-1(2H)-yl)(6-(4-fluorophenyl)pyridazin-4-yl)methanone]	< 50 nM
O=C(c1cncc(-c2ccccc2)n1)N1CCCc2ccccc21 [Compound 15, (3,4-Dihydroquinolin-1(2H)-yl)(6-phenylpyrazin-2-yl)methanone]	< 50 nM
CN1CCN(C(=O)c2cncc(-c3ccc(F)cc3)n2)c2ccccc21 [Compound 21, (6-(4-Fluorophenyl)pyrazin-2-yl)(4-methyl-3,4-dihydroquinoxalin-1(2H)-yl)-methanone]	< 50 nM
CCOC(=O)C1CN(C(=O)c2cncc(-c3ccc(F)cc3)n2)c2ccccc2O1 (centres unmarked) [Compound 35, Ethyl 4-(6-(4-fluorophenyl)pyrazine-2-carbonyl)-3,4-dihydro-2H-benzo[b][1,4]-oxazine-2-carboxylate]	< 50 nM
Cc1c(C(=O)N2CCOc3ccccc32)cncc1-c1ccc(F)cc1 [Compound 5, (2,3-Dihydro-4H-benzo[b][1,4]oxazin-4-yl)(5-(4-fluorophenyl)-4-methylpyridin-3-yl)methanone]	< 50 nM
O=C(c1cncc(-c2ccccc2F)c1)N1CCOc2ccccc21 [Compound 41, (2,3-Dihydro-4H-benzo[b][1,4]oxazin-4-yl)(5-(2-fluorophenyl)pyridin-3-yl)-methanone]	< 50 nM
CC1COc2ccccc2N1C(=O)c1cncc(-c2ccc(F)cc2)n1 (centres unmarked) [Compound 26, (6-(4-Fluorophenyl)pyrazin-2-yl)(3-methyl-2,3-dihydro-4H-benzo[b][1,4]oxazin-4-yl)methanone]	< 50 nM

The remaining lines, values ahead:

IC50	Structure (SMILES)
201 to 2500 nM	O=C(c1cncc(-c2ccc(CO)cc2)c1)N1CCOc2ccccc21 [Compound 65, (2,3-Dihydro-4H-benzo[b][1,4]oxazin-4-yl)(5-(4-(hydroxymethyl)phenyl)pyridin-3-yl)methanone]
201 to 2500 nM	O=C(c1cncc(C2=CCOCC2)c1)N1CCOc2ccccc21 [Compound 66, (5-(3,6-Dihydro-2H-pyran-4-yl)pyridin-3-yl)(2,3-dihydro-4H-benzo[b][1,4]-oxazin-4-yl)methanone]
201 to 2500 nM	Cc1ccc(-c2cncc(C(=O)N3CCOc4ccccc43)c2)cc1 [Compound 71, (2,3-Dihydro-4H-benzo[b][1,4]oxazin-4-yl)(5-(p-tolyl)pyridin-3-yl)methanone]
201 to 2500 nM	O=C(c1cncc(-c2cccnc2)c1)N1CCCc2ccccc21 [Compound 70, [3,3′-Bipyridin]-5-yl(3,4-dihydroquinolin-1(2H)-yl)methanone]
201 to 2500 nM	O=C(c1cncc(N2CCCC2)n1)N1CCOc2ccccc21 [Compound 76, (2,3-dihydro-4H-benzo[b][1,4]oxazin-4-yl)(6-(pyrrolidin-1-yl)pyrazin-2-yl)-methanone]
51 to 200 nM	Fc1ccc(-c2cncc(CN3CCc4ccccc43)c2)cc1 [Compound 90, 1-((5-(4-Fluorophenyl)pyridin-3-yl)methyl)indoline]
51 to 200 nM	O=C(c1cncc(-c2ccc(F)cc2)c1)N1CCOC2CCCCC21 (centres unmarked) [Compound 55, (5-(4-Fluorophenyl)pyridin-3-yl)(octahydro-4H-benzo[b][1,4]oxazin-4-yl)-methanone]
201 to 2500 nM	CC1(C)C2CN(c3cncc(C(=O)N4CCOc5ccccc54)c3)CC21 (centres unmarked) [Compound 75]
51 to 200 nM	O=C(c1cnnc(-c2ccccc2)c1)N1CCCc2ccccc21 [Compound 52, (3,4-Dihydroquinolin-1(2H)-yl)(6-phenylpyridazin-4-yl)methanone]
201 to 2500 nM	COC(=O)c1ccc2c(c1)CCCN2C(=O)c1cncc(-c2ccccc2)c1 [Compound 67, Methyl 1-(5-phenylnicotinoyl)-1,2,3,4-tetrahydroquinoline-6-carboxylate]
201 to 2500 nM	Cn1nccc1-c1cncc(C(=O)N2CCOc3ccccc32)n1 [Compound 63, (2,3-Dihydro-4H-benzo[b][1,4]oxazin-4-yl)(6-(1-methyl-1H-pyrazol-5-yl)-pyrazin-2-yl)methanone]
201 to 2500 nM	COc1cccc2c1CCCN2C(=O)c1cncc(-c2ccccc2)c1 [Compound 59, (5-Methoxy-3,4-dihydroquinolin-1(2H)-yl)(5-phenylpyridin-3-yl)methanone]
